Data on 1 compound can be found in US8759480B2, “Contoxin analogues and methods for synthesis of intramolecular dicarba bridge-containing peptides” (Syngene Limited, priority 2006, dated 2014).

For this assay, the system named is neuronal-type nicotinic receptors. Format: cell-based, bovine.

Turning to `CN1CCCC1c1cccnc1` (stereo not shown) [NICOTINE, nicotine, reference compound], the “Adrenaline Release 1st” value came to 4.31%, the “Adrenaline Release 2nd” value is given as 4.52%, the “Adrenaline Release 3rd” value was 4.52% and the “Adrenaline Release 4th” value is recorded as 4.48%. Besides, the “Adrenaline Release % control” value is listed as 100.000%, the “Adrenaline Release mean” value is 4.46%, the “Noradrenaline Release 1st” value came out at 6.62% and the “Noradrenaline Release 2nd” value was found to be 6.89%. Also, the “Noradrenaline Release 3rd” value was determined as 6.99%, the “Noradrenaline Release 4th” value came out at 6.89%, the “Noradrenaline Release % control” value came to 100.000% and the “Noradrenaline Release mean” value came to 6.85%. Besides, the “noradrenaline released, basal release (0.72%) subtracted” value is given as 6.13%.
